Columns and labels:
rat [1] = settings: Prenatal developmental toxicity study; wistar; Injection; Intraperitoneal; dose end: 18 GD; group: developmental; developmental / developmental malformation / placenta / size + systemic / in life observation / body weight / fetal weight
rabbit [2] = settings: Prenatal developmental toxicity study, new zealand white, Injection, Intravenous, dose end: 15 GD
rat [3] = settings: Prenatal developmental toxicity study; sprague dawley; Injection; Intraperitoneal; dose end: 20 GD; group: maternal; reproductive / reproductive performance / reproductive performance other / runts + systemic / in life observation / body weight / body …
rat [4] = settings: Prenatal developmental toxicity study; wistar; Injection; Intraperitoneal; dose end: 18 GD; group: maternal; reproductive / reproductive performance / resorptions / resorptions + reproductive / reproductive performance / reproductive performance …
rat [5] = settings: Subchronic oral toxicity in rodents, other, Feed, dose end: 90 day, group: systemic
rat [6] = settings: Combined chronic toxicity/carcinogenicity, other, Oral, Feed, dose end: 104 week, group: systemic
rat [7] = settings: Multigenerational reproductive toxicity study, sprague dawley, Oral, Feed, dose end: 2 generation
dog [8] = settings: Subchronic oral toxicity in nonrodent, beagle, Feed, dose end: 13 week, group: systemic
dog [9] = settings: Chronic toxicity, beagle, Oral, Feed, dose end: 52 week, group: systemic
rat [10] = settings: Prenatal developmental toxicity study, other, Oral, Gavage/Intubation, dose end: 16 GD
rat [11] = settings: Combined chronic toxicity/carcinogenicity, other, Oral, Feed, dose end: 25 month, group: systemic
mouse [12] = settings: Carcinogenicity; cd1; Oral; Feed; dose end: 104 week; group: systemic; systemic / pathology gross / liver / mass + systemic / pathology gross / liver / nodule(s) + systemic / pathology microscopic / liver / …
rabbit [13] = settings: Prenatal developmental toxicity study, new zealand white, Oral, Gavage/Intubation, dose end: 28 GD
mouse [14] = settings: Prenatal developmental toxicity study; swiss albino; Oral; Gavage/Intubation; dose end: 15 GD; group: developmental; systemic / in life observation / body weight / fetal weight
mouse [15] = settings: Combined chronic toxicity/carcinogenicity, cd1, Oral, Feed, dose end: 95 week, group: systemic
dog [16] = settings: Subchronic oral toxicity in nonrodent, beagle, Feed, dose end: 13 week, group: systemic; remark: listed apart in the source
rat [17] = settings: Prenatal developmental toxicity study, sprague dawley, Oral, Gavage/Intubation, dose end: 15 GD
dog [18] = settings: Chronic toxicity; beagle; Oral; Feed; dose end: 12 month; group: systemic; systemic / hematology / erythrocyte (rbc) count differential / erythrocyte (rbc) + systemic / hematology / hematocrit (hct) / hematocrit (…
rat [19] = settings: Subchronic oral toxicity in rodents, sprague dawley, Feed, dose end: 13 week, group: systemic, systemic / hematology / leukocyte (wbc) count differential / leukocyte (wbc) + systemic / in life observation / body weight / body weight …
rabbit [20] = settings: Prenatal developmental toxicity study, new zealand white, Oral, Gavage/Intubation, dose end: 19 GD
rat [21] = settings: Combined chronic toxicity/carcinogenicity, sprague dawley, Oral, Feed, dose end: 104 week, group: systemic
[22] = group: developmental, developmental / developmental malformation / bone / [other] + developmental / developmental malformation / brain / hydrocephaly + …
[23] = group: maternal, reproductive / reproductive performance / resorptions / resorptions
[24] = group: maternal, reproductive / reproductive performance / resorptions / resorptions + reproductive / offspring survival early / live fetuses / live fetuses
[25] = systemic / in life observation / body weight / body weight + systemic / in life observation / food consumption / food efficiency
[26] = systemic / in life observation / body weight / body weight + systemic / in life observation / food consumption / food efficiency + systemic…
[27] = group: offspring, systemic / in life observation / body weight / offspring (pup) weight
[28] = group: parental, systemic / in life observation / body weight / body weight + systemic / in life observation / body weight / body weight gain
[29] = systemic / organ weight / liver / absolute
[30] = systemic / clinical chemistry / alkaline phosphatase (alp/alk) / alkaline phosphatase (alp/alk) + systemic / pathology microscopic / liver…
[31] = group: developmental, developmental / developmental malformation / bone / misaligned + developmental / developmental malformation / kidney / absent renal papilla…
[32] = group: maternal, systemic / in life observation / body weight / body weight gain + systemic / in life observation / food consumption / food consumption + …
[33] = group: developmental, systemic / in life observation / body weight / fetal weight
[34] = group: maternal, reproductive / reproductive performance / aborted / aborted + systemic / in life observation / body weight / body weight gain + systemic / …
[35] = systemic / in life observation / body weight / body weight + systemic / in life observation / body weight / body weight gain + systemic / in…
[36] = systemic / clinical chemistry / alkaline phosphatase (alp/alk) / alkaline phosphatase (alp/alk) + systemic / clinical chemistry / aspartate …
[37] = systemic / organ weight / heart / absolute
[38] = group: developmental, developmental / developmental malformation / bone / unossified
[39] = group: developmental, developmental / developmental malformation / bone / unossified + developmental / developmental malformation / bone / incomplete ossification…
[40] = group: maternal, systemic / in life observation / body weight / body weight + systemic / in life observation / body weight / body weight gain + systemic / in…
[41] = group: developmental, developmental / developmental malformation / other / other + systemic / in life observation / body weight / fetal weight + developmental / …
[42] = group: maternal, systemic / in life observation / body weight / body weight gain + systemic / in life observation / clinical signs / no feces + systemic / in…
[43] = group: maternal, systemic / in life observation / clinical signs / no feces + systemic / in life observation / clinical signs / soft stools
[44] = systemic / hematology / leukocyte (wbc) count differential / leukocyte (wbc) + systemic / pathology microscopic / liver / adenoma/carcinoma …

`CN(Cc1cnc2nc(N)nc(N)c2n1)c1ccc(C(=O)N[C@@H](CCC(=O)O)C(=O)O)cc1` [Methotrexate] was tested, and the LEL (rat [1]) was 0.5 mg/kg/day, the LOAEL (rat [1]) was greater than 0.5 mg/kg/day and the NEL (rat [1]) was less than 0.5 mg/kg/day. For the same compound, the NOAEL (rat [1]) was no less than 0.5 mg/kg/day, the LEL (rabbit [2]; [22]) was 19.2 mg/kg/day and the LOAEL (rabbit [2]; [22]) was greater than 19.2 mg/kg/day. The NOAEL (rabbit [2]; [22]) was no less than 19.2 mg/kg/day, the LEL (rabbit [2]; [23]) was 9.6 mg/kg/day and the NEL (rabbit [2]; [23]) was 4.8 mg/kg/day. It also gave an LOAEL (rabbit [2]; [24]) greater than 19.2 mg/kg/day, an NOAEL (rabbit [2]; [24]) of no less than 19.2 mg/kg/day and an LEL (rat [3]) of 0.5 mg/kg/day. For the same compound, the LOAEL (rat [3]) was greater than 2 mg/kg/day, the NEL (rat [3]) was less than 0.5 mg/kg/day and the NOAEL (rat [3]) was no less than 2 mg/kg/day. For the same compound, the LEL (rat [4]) was 0.5 mg/kg/day, the LOAEL (rat [4]) was greater than 2 mg/kg/day and the NEL (rat [4]) was less than 0.5 mg/kg/day. For the same compound, the NOAEL (rat [4]) was no less than 2 mg/kg/day.
`CN(C)c1nc(=O)n(C2CCCCC2)c(=O)n1C` [Hexazinone] showed an LOAEL (rat [5]; [25]) of 440 mg/kg/day, an LEL (rat [5]; [26]) of 440 mg/kg/day and an NEL (rat [5]; [26]) of 81 mg/kg/day. The NOAEL (rat [5]; [26]) was 81 mg/kg/day, the LOAEL (rat [6]; [25]) was 50 mg/kg/day and the LEL (rat [6]; [26]) was 50 mg/kg/day. For the same compound, the NEL (rat [6]; [26]) was 10 mg/kg/day, the NOAEL (rat [6]; [26]) was 10 mg/kg/day and the LEL (rat [7]; [27]) was 154 mg/kg/day. For the same compound, the LOAEL (rat [7]; [27]) was 180 mg/kg/day, the NEL (rat [7]; [27]) was 15.3 mg/kg/day and the NOAEL (rat [7]; [27]) was 17.7 mg/kg/day. For the same compound, the LEL (rat [7]; [28]) was 143 mg/kg/day, the LOAEL (rat [7]; [28]) was 143 mg/kg/day and the NEL (rat [7]; [28]) was 14.3 mg/kg/day. For the same compound, the NOAEL (rat [7]; [28]) was 14.3 mg/kg/day, the LOAEL (dog [8]; systemic / clinical chemistry / alkaline phosphatase (alp/alk) / alkaline phosphatase (alp/alk) + systemic / in life observation / body …) was 122 mg/kg/day and the LEL (dog [8]; [29]) was 5.1 mg/kg/day. The NEL (dog [8]; [29]) was less than 5.1 mg/kg/day, the NOAEL (dog [8]; systemic / organ weight / liver / absolute + systemic / clinical chemistry / alkaline phosphatase (alp/alk) / alkaline phosphatase (alp/alk…) was 25.9 mg/kg/day and the LOAEL (dog [9]; [30]) was 37.6 mg/kg/day. It also gave an NEL (dog [9]; [30]) of 4.97 mg/kg/day, an NOAEL (dog [9]; [30]) of 4.97 mg/kg/day and an LEL (dog [9]; systemic / pathology microscopic / liver / lesion(s) (nos) + systemic / pathology microscopic / liver / pigmentation) of 37.6 mg/kg/day. The LEL (rat [10]; [31]) was 900 mg/kg/day, the LOAEL (rat [10]; [31]) was 900 mg/kg/day and the NEL (rat [10]; [31]) was 400 mg/kg/day. The NOAEL (rat [10]; [31]) was 400 mg/kg/day, the LOAEL (rat [10]; group: maternal, systemic / in life observation / body weight / body weight gain + systemic / in life observation / food consumption / food consumption) was 400 mg/kg/day and the LEL (rat [10]; [32]) was 400 mg/kg/day. The NEL (rat [10]; [32]) was 100 mg/kg/day, the NOAEL (rat [10]; [32]) was 100 mg/kg/day and the LOAEL (rat [11]; [25]) was 53.4 mg/kg/day. It also gave an LEL (rat [11]; [26]) of 53.4 mg/kg/day, an NEL (rat [11]; [26]) of 10.2 mg/kg/day and an NOAEL (rat [11]; [26]) of 10.2 mg/kg/day. The LEL (mouse [12]) was 366 mg/kg/day, the LOAEL (mouse [12]) was 366 mg/kg/day and the NEL (mouse [12]) was 28 mg/kg/day. The NOAEL (mouse [12]) was 28 mg/kg/day, the LEL (rabbit [13]; [33]) was 125 mg/kg/day and the LOAEL (rabbit [13]; [33]) was 125 mg/kg/day. The NEL (rabbit [13]; [33]) was 50 mg/kg/day, the NOAEL (rabbit [13]; [33]) was 50 mg/kg/day and the LEL (rabbit [13]; [34]) was 125 mg/kg/day. It also gave an LOAEL (rabbit [13]; [34]) of 125 mg/kg/day, an NEL (rabbit [13]; [34]) of 50 mg/kg/day and an NOAEL (rabbit [13]; [34]) of 50 mg/kg/day.
With `Nc1ccn([C@H]2CC[C@@H](CO)O2)c(=O)n1` [2',3'-Dideoxycytidine] the LEL (mouse [14]) was 500 mg/kg/day, the LOAEL (mouse [14]) was greater than 500 mg/kg/day and the NEL (mouse [14]) was 200 mg/kg/day. For the same compound, the NOAEL (mouse [14]) was no less than 500 mg/kg/day.
`CCNc1nc(Cl)nc(NCC)n1` [Simazine] gave an LOAEL (mouse [15]; systemic / in life observation / body weight / body weight + systemic / in life observation / body weight / body weight gain) of 132 mg/kg/day, an LEL (mouse [15]; [35]) of 132 mg/kg/day and an NEL (mouse [15]; [35]) of 5.3 mg/kg/day. It also gave an NOAEL (mouse [15]; [35]) of 5.3 mg/kg/day, an LOAEL (dog [16]; [36]) of 64.3 mg/kg/day and an NOAEL (dog [16]; [36]) of 8.2 mg/kg/day. The LEL (dog [16]; [37]) was 6.9 mg/kg/day, the NEL (dog [16]; [37]) was less than 6.9 mg/kg/day and the LEL (rat [17]; [38]) was 30 mg/kg/day. It also gave an NEL (rat [17]; [38]) of less than 30 mg/kg/day, an LOAEL (rat [17]; [39]) of 300 mg/kg/day and an NOAEL (rat [17]; [39]) of 30 mg/kg/day. For the same compound, the LEL (rat [17]; [40]) was 300 mg/kg/day, the LOAEL (rat [17]; [40]) was 300 mg/kg/day and the NEL (rat [17]; [40]) was 30 mg/kg/day. It also gave an NOAEL (rat [17]; [40]) of 30 mg/kg/day, an LEL (dog [18]) of 3.64 mg/kg/day and an LOAEL (dog [18]) of 3.64 mg/kg/day. For the same compound, the NEL (dog [18]) was 0.76 mg/kg/day, the NOAEL (dog [18]) was 0.76 mg/kg/day and the LEL (rat [19]) was 12.6 mg/kg/day. It also gave an LOAEL (rat [19]) of 12.6 mg/kg/day, an NEL (rat [19]) of less than 12.6 mg/kg/day and an NOAEL (rat [19]) of less than 12.6 mg/kg/day. The LOAEL (rabbit [20]; group: developmental, developmental / developmental malformation / other / other + systemic / in life observation / body weight / fetal weight) was 200 mg/kg/day, the LEL (rabbit [20]; [41]) was 200 mg/kg/day and the NEL (rabbit [20]; [41]) was 75 mg/kg/day. For the same compound, the NOAEL (rabbit [20]; [41]) was 75 mg/kg/day, the LOAEL (rabbit [20]; [42]) was 75 mg/kg/day and the NOAEL (rabbit [20]; [42]) was 5 mg/kg/day. For the same compound, the LEL (rabbit [20]; [43]) was 5 mg/kg/day, the NEL (rabbit [20]; [43]) was less than 5 mg/kg/day and the LOAEL (rat [21]; systemic / hematology / leukocyte (wbc) count differential / leukocyte (wbc)) was 4.17 mg/kg/day. It also gave an LEL (rat [21]; systemic / hematology / leukocyte (wbc) count differential / leukocyte (wbc) + systemic / in life observation / body weight / body weight …) of 4.17 mg/kg/day, an NEL (rat [21]; [44]) of 0.41 mg/kg/day and an NOAEL (rat [21]; [44]) of 0.41 mg/kg/day.
